From patent US9567339B2, “Primary carboxamides as BTK inhibitors” (AbbVie Inc., priority 2013, dated 2017)

target: BTK, recombinant human catalytic domain (aa 393-659) (Homo sapiens (Human), UniProt Q06187); assay: In vitro BTK kinase activity measured by time-resolved fluorescence resonance energy transfer (trFRET); type: biochemical; details: trFRET, 0.001 mM ATP, biotin-TYR1 peptide substrate; read-out: Btk IC50
Sequence (Q06187 393-659): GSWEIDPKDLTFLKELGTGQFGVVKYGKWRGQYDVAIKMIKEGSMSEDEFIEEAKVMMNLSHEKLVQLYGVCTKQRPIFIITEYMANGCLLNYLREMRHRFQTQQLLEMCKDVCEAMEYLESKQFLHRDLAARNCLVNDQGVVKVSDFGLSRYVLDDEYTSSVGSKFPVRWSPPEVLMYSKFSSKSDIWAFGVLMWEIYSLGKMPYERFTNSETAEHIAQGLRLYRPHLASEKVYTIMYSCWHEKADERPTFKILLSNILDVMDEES

| IC50 [nM] | Compound |
| --- | --- |
| < 100 | Cc1c(N)cccc1-c1ccc(C(N)=O)c2[nH]c(C3=CCN(S(C)(=O)=O)CC3)cc12 [A.4.5, 4-(3-amino-2-methylphenyl)-2-(1-(methylsulfonyl)-1,2,3,6-tetrahydropyridin-4-yl)-1H-indole-7-carboxamide] |
| < 100 | Cc1c(-c2ccc(C(N)=O)c3[nH]c(C4=CCN(S(C)(=O)=O)CC4)cc23)cccc1N1CCc2ccccc2C1=O [A.4.6] |
| < 100 | CS(=O)(=O)N1CC=C(c2cc3c(-c4ccccc4)ccc(C(N)=O)c3[nH]2)CC1 [A.4.7] |
| < 100 | CS(=O)(=O)N1CC=C(c2cc3c(-c4cccc(Nc5ccnc(C#N)n5)c4)ccc(C(N)=O)c3[nH]2)CC1 [A.4.8] |
| < 100 | Cc1c(NC(=O)c2ccc(C(F)F)cc2)cccc1-c1ccc(C(N)=O)c2[nH]c(C3=CCN(S(C)(=O)=O)CC3)cc12 [A.4.10] |
| < 100 | Cc1c(NC2COC2)cccc1-c1ccc(C(N)=O)c2[nH]c(C3=CCN(S(C)(=O)=O)CC3)cc12 [A.4.11] |
| < 100 | Cc1c(-c2ccc(C(N)=O)c3[nH]c(C4=CCN(S(C)(=O)=O)CC4)cc23)cccc1N(C(=O)c1ccc(C(F)F)cc1)C1COC1 [A.4.12] |
| < 100 | Cc1c(NCCO)cccc1-c1ccc(C(N)=O)c2[nH]c(C3=CCN(S(C)(=O)=O)CC3)cc12 [A.4.13] |
| < 100 | Cc1c(-c2ccc(C(N)=O)c3[nH]c(C4=CCN(S(C)(=O)=O)CC4)cc23)cccc1N(CCO)C(=O)c1ccc(C(F)F)cc1 [A.4.14] |
| < 100 | C=CC(=O)Nc1cccc(-c2ccc(C(N)=O)c3[nH]c(C4=CCN(S(C)(=O)=O)CC4)cc23)c1 [A.4.15] |
| < 100 | Cc1c(NC(=O)c2ccc(C3CC3)cc2)cccc1-c1ccc(C(N)=O)c2[nH]c(C3=CCN(S(C)(=O)=O)CC3)cc12 [A.4.16] |
| < 100 | Cc1c(NC(=O)c2nccs2)cccc1-c1ccc(C(N)=O)c2[nH]c(C3=CCN(S(C)(=O)=O)CC3)cc12 [A.4.17] |
| < 100 | Cc1c(-c2ccc(C(N)=O)c3[nH]c(C4=CCN(S(C)(=O)=O)CC4)cc23)cccc1-n1cnc2ccccc2c1=O [A.4.18] |
| < 100 | Cc1c(-c2ccc(C(N)=O)c3[nH]c(C4=CCN(S(C)(=O)=O)CC4)cc23)cccc1-n1cnc2ccc(F)cc2c1=O [A.4.19] |
| 1000 to 10000 | NC(=O)c1ccc(-c2ccccc2N)c2cc[nH]c12 [A.5.1, 4-(2-aminophenyl)-1H-indole-7-carboxamide] |
| 100 to 1000 | C=CC(=O)Nc1cccc(-c2ccc(C(N)=O)c3[nH]ccc23)c1 [A.5.2] |
| 1000 to 10000 | NC(=O)c1ccc(-c2ccnc(N)c2)c2cc[nH]c12 [A.5.3, 4-(2-aminopyridin-4-yl)-1H-indole-7-carboxamide] |
| 1000 to 10000 | NC(=O)c1ccc(-c2cncc(N)c2)c2cc[nH]c12 [A.5.4, 4-(5-aminopyridin-3-yl)-1H-indole-7-carboxamide] |
| 1000 to 10000 | Cc1c(NC(=O)c2ccc(C(C)(C)C)cc2)cccc1-c1ccc(C(N)=O)c2[nH]ccc12 [A.5.6] |
| 1000 to 10000 | N#CCNS(=O)(=O)c1cccc(-c2ccc(C(N)=O)c3[nH]ccc23)c1 [A.6.1] |
| 1000 to 10000 | CNc1cccc(-c2ccc(C(N)=O)c3[nH]ccc23)c1 [A.6.2] |
| < 100 | Cc1c(NC(=O)c2ccc(C(C)(C)C)cc2)cccc1-c1ccc(C(N)=O)c2[nH]c(-c3cccnc3)cc12 [A.7.1] |
| < 100 | Cc1c(-c2ccc(C(N)=O)c3[nH]c(-c4cccnc4)cc23)cccc1-n1cnc2ccccc2c1=O [A.7.2] |
| < 100 | Cc1c(NC(=O)c2cc3c(s2)CCCC3)cccc1-c1ccc(C(N)=O)c2[nH]c(-c3cccnc3)cc12 [A.7.3] |
| < 100 | Cc1c(-c2ccc(C(N)=O)c3[nH]c(-c4cccnc4)cc23)cccc1N1Cc2ccccc2C1=O [A.7.4] |
| < 100 | Cc1ccc2c(c1)C(=O)N(c1cccc(-c3ccc(C(N)=O)c4[nH]c(-c5cccnc5)cc34)c1C)C2 [A.7.5] |
| < 100 | Cc1c(-c2ccc(C(N)=O)c3[nH]c(-c4cccnc4)cc23)cccc1N1Cc2ccc(F)cc2C1=O [A.7.6] |
| 1000 to 10000 | Cc1ccc(NC(=O)c2nccs2)cc1-c1ccc(C(N)=O)c2[nH]c(-c3cccnc3)cc12 [A.7.7] |
